Measured values: patent US20150152083A1, “Compounds and Compositions for Modulating EGFR Activity” (IRM LLC, A Delaware Limited Liability Company, priority 2012, published 2015)

Legend:
EGFR (WT) = target: T1, EGFR (WT) (Homo sapiens, UniProt P00533); assay: EGFR target modulation in engineered NIH3T3 cell lines (phospho-EGFR AlphaLISA); assay type: cell-based; conditions: NIH3T3 cells expressing human EGFR WT; 3 hours compound; induced with 50 ng/ml EGF
T1 construct: host or cells: NIH3T3
Description: (§1) EGFR Target Modulation in Engineered NIH3T3 Cell Lines
(§2) NIH3T3 cell lines expressing human EGFR (WT, L858R, and L858RT790M) (obtained from Matthew Meyerson's Lab at DFCI) were maintained in 10% FBS/DMEM supplemented with 100 μg/ml Penicillin/Streptomycin (Hyclone #SV30010) and 2 μg/ml Puromycin. The cells were harvested with 0.05% Trypsin/EDTA (Hyclone #SH30236.01), re-suspended in 5% FBS/DMEM Pen/Strep without Puromycin and plated at 9,000 cells per well in 50 μl of media in a 384-well black plate with clear bottoms (Greiner #789068G). The cells were allowed to incubate overnight in a 37° C., 5% CO2 humidified tissue culture incubator. A 12-point test compound curve was prepared by serial diluting a 10 μM stock 1:3 in DMSO in a 384-well compound plate (Greiner #789201L). The serial diluted compounds were transferred to the plate containing cells by using a 50 nl Pin Head device (Perkin Elmer) and the cells were placed back in the incubator for 3 hours. Only the EGFR WT-expressing cells were induced with 50 ng/ml EGF (Preprotech #AF-100-15) for 5 minutes before lysis. The media was removed and cells were lysed in 25 μl of Lysis buffer containing protease and phosphatase inhibitors (1% Triton X-100, 20 mM Tris, pH 7.5, 1 mM EDTA, 1 mM EGTA, 150 mM NaCl, 1× complete cocktail inhibitor (Roche #11 697 498 001), 1× Phosphatase Inhibitor Cocktail Set II and Set III (Sigma #P5726 and #P0044)). The plates were shaken at 4° C. for 5 minutes with foil top at maximum speed. An aliquot of 5 μl from each well was transferred to ProxiPlate™ 384-well Plus plates (PE #6008289). The plates were sealed with a foil top and frozen at −80° C. and thawed when needed.
(§3) The frozen aliquots were thawed and briefly centrifuged. All antibodies and beads were diluted in 1× AlphaLISA HiBlock Buffer (PE #AL004C). Biotinylated anti-phospho-EGFR (Y1068) (Cell Signaling #4031) was incubated with the lysate for 1 hour at room temperature at 1 nM final concentration. Goat anti-total EGFR (R&D Systems #AF231) was added and allowed to equilibrate for 1 hour at room temperature at 1 nM final concentration. Then, 10 μl of mixed beads (AlphaScreen Streptavidin Donor Beads (PE #6760002S) and AlphaLISA anti-goat IgG Acceptor Beads (PE #AL107C)) was equilibrated for 1.5 hours before reading on EnVision plate reader using the built-in settings for AlphaScreen.
(§4) Cells untreated (L858R and L858RT790M) or EGF-induced (WT) were set to 100% maximum response. For a negative control, 10 μM HKI-272 was used to normalize data to 0% of maximum response. With these parameters, the IC50's for each compound in each cell line was calculated using non-linear curve fitting analysis.

EGFR (L858R) = target: T2, EGFR (L858R) (Homo sapiens, UniProt P00533, L858R); assay: as above; assay type: cell-based; conditions: NIH3T3 cells expressing human EGFR L858R; 3 hours compound
T2 construct: host or cells: NIH3T3
Description: as §1, §2, §3, §4

EGFR(L858R/T790M) [1] = target: T3, EGFR(L858R/T790M) (Homo sapiens, UniProt P00533, L858R/T790M); assay: as above; assay type: cell-based; parameters: host or cells: NIH3T3; conditions: NIH3T3 cells expressing human EGFR L858R/T790M; 3 hours compound
Description: as §1, §2, §3, §4
Target sequence in this assay (P00533 25-1210 T790M/L858R): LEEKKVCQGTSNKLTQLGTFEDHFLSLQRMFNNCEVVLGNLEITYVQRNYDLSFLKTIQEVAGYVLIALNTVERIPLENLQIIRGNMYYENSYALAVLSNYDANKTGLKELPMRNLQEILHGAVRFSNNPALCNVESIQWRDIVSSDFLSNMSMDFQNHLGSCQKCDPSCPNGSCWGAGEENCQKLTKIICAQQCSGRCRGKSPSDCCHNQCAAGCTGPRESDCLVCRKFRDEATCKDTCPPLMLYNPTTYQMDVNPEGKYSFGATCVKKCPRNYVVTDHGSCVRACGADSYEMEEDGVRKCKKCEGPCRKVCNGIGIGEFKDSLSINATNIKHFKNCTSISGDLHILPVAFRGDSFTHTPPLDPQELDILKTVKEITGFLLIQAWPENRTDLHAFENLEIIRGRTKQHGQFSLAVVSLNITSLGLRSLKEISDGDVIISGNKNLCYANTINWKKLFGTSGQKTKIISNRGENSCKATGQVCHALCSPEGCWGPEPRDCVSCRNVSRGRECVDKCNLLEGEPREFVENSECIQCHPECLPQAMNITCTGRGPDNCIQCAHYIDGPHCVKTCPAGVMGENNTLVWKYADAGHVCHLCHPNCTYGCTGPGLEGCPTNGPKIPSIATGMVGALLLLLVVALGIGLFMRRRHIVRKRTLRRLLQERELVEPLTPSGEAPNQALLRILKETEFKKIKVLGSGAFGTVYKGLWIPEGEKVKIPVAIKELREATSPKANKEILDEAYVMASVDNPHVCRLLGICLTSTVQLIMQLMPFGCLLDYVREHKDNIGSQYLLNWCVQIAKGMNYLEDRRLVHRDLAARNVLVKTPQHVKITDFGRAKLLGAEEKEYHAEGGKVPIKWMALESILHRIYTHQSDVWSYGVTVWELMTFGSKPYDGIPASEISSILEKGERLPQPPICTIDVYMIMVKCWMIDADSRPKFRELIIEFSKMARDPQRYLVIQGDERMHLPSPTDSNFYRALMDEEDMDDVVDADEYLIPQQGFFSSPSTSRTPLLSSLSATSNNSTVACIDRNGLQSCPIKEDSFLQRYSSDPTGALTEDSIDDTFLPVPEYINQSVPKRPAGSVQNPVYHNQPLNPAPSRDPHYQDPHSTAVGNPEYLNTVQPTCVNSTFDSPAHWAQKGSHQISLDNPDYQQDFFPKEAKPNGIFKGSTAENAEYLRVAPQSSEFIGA

EGFR(L858R/T790M) [2] = target: T3, EGFR(L858R/T790M); assay: EGFR biochemical assay (HTRF), IC50 determination; parameters: purchased from Carna (GST-a.a. 669-1210); purchased Carna; conditions: 10 μM ATP
Description: All EGFR biochemical assays were carried out by HTRF method. The EGFR(L858RT790M) enzyme were purchased from Carna (GST-a.a. 669-1210). The substrate peptide Biotin-TK-peptide was purchased from Cis-Bio. The reaction mixtures contained 1 μM peptide substrate, 10 μM ATP, and 0.036 nM EGFR(L858RT790M) in the reaction buffer (50 mM HEPES pH 7.1, 10 mM MgCl2, 0.01% BSA, 1 mM TCEP and 0.1 mM Na3VO4) at a final volume of 10 μL. All reactions were carried out at room temperature in white ProxiPlate™ 384-well Plus plates (PerkinElmer) and were quenched with 5 μL of 0.2 M EDTA at 60 min Five μL of the detection reagents (2.5 ng PT66K and 0.05 μg SAXL per well) were added, the plates were incubated at room temperature for 1 h and then read in EnVision reader. […] For no-preincubation condition, the compounds were added to the assay solution containing ATP and peptide, and the reaction was initiated by addition of enzyme. For pre-incubation conditions, the compounds were added to the assay solution containing enzyme and peptide, and pre-incubated at room temperature for desired period of time, then the reaction was initiated by addition of ATP.
Target sequence in this assay (P00533 669-1210 T790M/L858R): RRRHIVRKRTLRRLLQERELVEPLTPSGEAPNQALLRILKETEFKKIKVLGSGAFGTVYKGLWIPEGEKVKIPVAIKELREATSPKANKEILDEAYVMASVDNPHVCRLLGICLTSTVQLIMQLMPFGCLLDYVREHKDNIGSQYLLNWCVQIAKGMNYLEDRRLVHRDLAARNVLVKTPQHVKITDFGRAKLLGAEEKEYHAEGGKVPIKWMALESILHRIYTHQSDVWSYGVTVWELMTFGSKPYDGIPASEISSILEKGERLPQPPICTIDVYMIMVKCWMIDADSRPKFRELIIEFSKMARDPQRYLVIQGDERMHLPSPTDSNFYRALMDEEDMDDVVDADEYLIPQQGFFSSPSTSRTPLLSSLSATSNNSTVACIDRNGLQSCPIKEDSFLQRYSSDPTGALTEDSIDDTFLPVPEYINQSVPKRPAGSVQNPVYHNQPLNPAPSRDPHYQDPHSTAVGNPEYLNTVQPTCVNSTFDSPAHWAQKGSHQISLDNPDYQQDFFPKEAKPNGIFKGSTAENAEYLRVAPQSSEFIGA

[3] = EGFR (L858R/T790M) IC50 (μM) 90 min pre-incubation, 90 min pre-incubation
[4] = no pre-incubation, read-out: EGFR (L858R/T790M) IC50 (μM) No pre-incubation

T1 sequence (P00533 25-1210): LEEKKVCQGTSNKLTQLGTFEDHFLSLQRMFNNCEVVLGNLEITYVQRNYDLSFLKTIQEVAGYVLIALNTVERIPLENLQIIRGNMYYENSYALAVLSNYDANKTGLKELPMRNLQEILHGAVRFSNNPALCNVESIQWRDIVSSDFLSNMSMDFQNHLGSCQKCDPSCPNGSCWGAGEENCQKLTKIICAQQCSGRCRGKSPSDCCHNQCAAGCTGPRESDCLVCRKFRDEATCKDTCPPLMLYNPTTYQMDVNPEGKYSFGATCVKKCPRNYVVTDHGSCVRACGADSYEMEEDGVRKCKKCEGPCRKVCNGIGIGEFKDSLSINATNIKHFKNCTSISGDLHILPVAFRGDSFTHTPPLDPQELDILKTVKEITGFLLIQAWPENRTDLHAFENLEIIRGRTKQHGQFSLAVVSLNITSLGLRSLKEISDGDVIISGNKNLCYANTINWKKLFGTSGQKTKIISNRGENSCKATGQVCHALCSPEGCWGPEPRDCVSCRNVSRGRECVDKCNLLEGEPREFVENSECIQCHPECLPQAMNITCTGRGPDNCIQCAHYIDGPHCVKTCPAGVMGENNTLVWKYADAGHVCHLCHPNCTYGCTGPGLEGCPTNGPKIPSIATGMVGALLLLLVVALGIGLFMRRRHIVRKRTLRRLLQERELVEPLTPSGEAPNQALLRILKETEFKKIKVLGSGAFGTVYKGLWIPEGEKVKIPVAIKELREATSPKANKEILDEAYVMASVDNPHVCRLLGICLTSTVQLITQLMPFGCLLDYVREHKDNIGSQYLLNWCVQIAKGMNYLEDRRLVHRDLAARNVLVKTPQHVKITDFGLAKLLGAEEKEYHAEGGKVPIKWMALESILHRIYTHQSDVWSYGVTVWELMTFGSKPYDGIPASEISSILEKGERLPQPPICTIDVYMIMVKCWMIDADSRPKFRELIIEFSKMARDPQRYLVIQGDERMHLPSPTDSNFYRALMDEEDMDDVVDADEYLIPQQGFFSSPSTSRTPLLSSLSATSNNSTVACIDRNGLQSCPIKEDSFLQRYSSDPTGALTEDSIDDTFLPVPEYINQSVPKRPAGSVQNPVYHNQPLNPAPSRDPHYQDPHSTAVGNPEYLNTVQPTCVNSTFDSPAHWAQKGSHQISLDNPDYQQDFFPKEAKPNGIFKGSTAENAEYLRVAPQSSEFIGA
T2 sequence (P00533 25-1210 L858R): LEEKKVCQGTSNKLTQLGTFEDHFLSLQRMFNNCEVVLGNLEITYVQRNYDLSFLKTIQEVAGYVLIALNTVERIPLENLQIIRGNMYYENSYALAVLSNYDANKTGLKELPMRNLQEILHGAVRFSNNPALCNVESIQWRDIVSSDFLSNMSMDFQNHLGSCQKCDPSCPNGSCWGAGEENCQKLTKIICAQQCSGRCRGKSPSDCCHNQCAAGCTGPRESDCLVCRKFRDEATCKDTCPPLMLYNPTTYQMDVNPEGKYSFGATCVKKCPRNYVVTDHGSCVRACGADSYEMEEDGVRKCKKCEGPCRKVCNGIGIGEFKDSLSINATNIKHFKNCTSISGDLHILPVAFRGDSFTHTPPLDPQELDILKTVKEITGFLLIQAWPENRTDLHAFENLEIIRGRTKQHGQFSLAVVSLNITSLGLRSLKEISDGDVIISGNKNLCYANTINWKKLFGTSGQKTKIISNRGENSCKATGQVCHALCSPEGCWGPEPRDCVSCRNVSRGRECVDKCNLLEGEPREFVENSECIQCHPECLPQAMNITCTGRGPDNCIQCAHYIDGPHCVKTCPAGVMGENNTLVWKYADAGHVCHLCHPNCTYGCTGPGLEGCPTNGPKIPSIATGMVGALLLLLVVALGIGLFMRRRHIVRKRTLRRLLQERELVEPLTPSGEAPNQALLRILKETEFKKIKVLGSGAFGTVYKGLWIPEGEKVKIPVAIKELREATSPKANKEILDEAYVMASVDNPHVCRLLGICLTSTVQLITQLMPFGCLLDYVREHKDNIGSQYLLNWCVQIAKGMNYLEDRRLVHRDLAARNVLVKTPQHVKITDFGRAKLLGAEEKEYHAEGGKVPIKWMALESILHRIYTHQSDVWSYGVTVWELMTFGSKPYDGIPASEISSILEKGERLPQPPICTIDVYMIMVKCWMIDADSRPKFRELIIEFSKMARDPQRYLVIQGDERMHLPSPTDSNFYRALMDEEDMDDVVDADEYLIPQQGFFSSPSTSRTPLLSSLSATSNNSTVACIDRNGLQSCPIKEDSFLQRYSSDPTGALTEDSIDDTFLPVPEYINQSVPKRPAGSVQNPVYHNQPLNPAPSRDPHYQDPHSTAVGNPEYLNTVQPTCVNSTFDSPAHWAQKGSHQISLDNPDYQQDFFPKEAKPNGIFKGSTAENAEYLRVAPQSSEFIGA

Row | Structure (SMILES) | IC50 (EGFR (WT)) | IC50 (EGFR (L858R)) | IC50 (EGFR(L858R/T790M) [1]) | IC50 (EGFR(L858R/T790M) [2]; [3]) | IC50 (EGFR(L858R/T790M) [2]; [4])
1 | C=CC(=O)N[C@H]1CCCC(n2c(NC(=O)c3cccc(C(F)(F)F)c3)nc3cccc(C)c32)C1 (mixture of isomers) [Example 6, trans-N-(1-(3-acrylamidocyclohexyl)-7-methyl-1H-benzo[d]imidazol-2-yl)-3-(trifluoromethyl)benzamide] | > 10 µM | 0.69 µM | 0.14 µM | 0.009 µM | 0.18 µM
2 | C=CC(=O)N[C@@H]1CCC[C@H](n2c(NC(=O)c3cccc(C(F)(F)F)c3)nc3cccc(C)c32)C1 (racemic) [Example 7, cis-N-(1-(3-acrylamidocyclohexyl)-7-methyl-1H-benzo[d]imidazol-2-yl)-3-(trifluoromethyl)benzamide] | > 10 µM | 0.28 µM | 0.037 µM | 0.002 µM | 0.039 µM
3 | C=CC(=O)N[C@@H]1CCC[C@H](n2c(NC(=O)c3cccc(C(F)(F)F)c3)nc3cc(C)ccc32)C1 (racemic) [Example 8-1, N-{5-methyl-1-[(1S,3R)-3-(prop-2-enamido)cyclohexyl]-1H-1,3-benzodiazol-2-yl}-3-(trifluoromethyl)benzamide] | > 10 µM | 0.54 µM | 0.041 µM |  | 
4 | C=CC(=O)NC1CCC(n2c(NC(=O)c3cccc(C(F)(F)F)c3)nc3cc(C)ccc32)C1 (racemic) [Example 8-3, N-{5-methyl-1-[3-(prop-2-enamido)cyclopentyl]-1H-1,3-benzodiazol-2-yl}-3-(trifluoromethyl)benzamide] |  |  |  | 0.15 µM | 0.72 µM
5 | C=CC(=O)N[C@H]1CC[C@@H](n2c(NC(=O)c3cccc(C(F)(F)F)c3)nc3cc(C)ccc32)C1 (single isomer, unassigned) [Example 9-1A] |  |  |  | 0.08 µM | 0.75 µM
6 | C=CC(=O)N[C@@H]1CC[C@H](n2c(NC(=O)c3cccc(C(F)(F)F)c3)nc3cc(C)ccc32)C1 (single isomer, unassigned) [Example 9-1B] |  |  |  | 0.15 µM | 0.29 µM
7 | C=CC(=O)N[C@H]1CCC[C@@H](n2c(NC(=O)c3cccc(C(F)(F)F)c3)nc3cc(C)ccc32)C1 (single isomer, unassigned) [Example 9-2A] | > 10 µM | 0.54 µM | 0.032 µM |  | 
8 | C=CC(=O)N[C@@H]1CCC[C@H](n2c(NC(=O)c3cccc(C(F)(F)F)c3)nc3cc(C)ccc32)C1 (single isomer, unassigned) [Example 9-2B] | > 10 µM | > 10 µM | 0.4 µM |  | 
9 | C=CC(=O)Nc1ccc(-n2c(NC(=O)c3cccc(C(F)(F)F)c3)nc3cc(C)ccc32)cc1 [Example 2-11, N-{5-methyl-1-[4-(prop-2-enamido)phenyl]-1H-1,3-benzodiazol-2-yl}-3-(trifluoromethyl)benzamide] |  |  |  | 0.15 µM | 1.04 µM
10 | C=CC(=O)Nc1ccccc1-n1c(NC(=O)c2cccc(C(F)(F)F)c2)nc2cc(C)ccc21 [Example 2-12, N-{5-methyl-1-[2-(prop-2-enamido)phenyl]-1H-1,3-benzodiazol-2-yl}-3-(trifluoromethyl)benzamide] |  |  |  | 0.1 µM | 1.8 µM
11 | C/C=C/C(=O)Nc1cccc(-n2c(NC(=O)c3cccc(C(F)(F)F)c3)nc3cc(C)ccc32)c1 [Example 2-14, N-{1-[3-(but-2-enamido)phenyl]-5-methyl-1H-1,3-benzodiazol-2-yl}-3-(trifluoromethyl)benzamide] |  |  |  | 0.101 µM | 0.36 µM
12 | Cc1cc(C(=O)Nc2nc3cccc(Cl)c3n2-c2cc(NC(=O)/C=C/CN(C)C)ccc2C)ccn1 [Example 2-15, (E)-N-(7-chloro-1-(5-(4-(dimethylamino)but-2-enamido)-2-methylphenyl)-1H-benzo[d]imidazol-2-yl)-2-methylisonicotinamide] |  |  |  | 1.06 µM | 20 µM
13 | C=CC(=O)Nc1ccc(C)c(-n2c(NC(=O)c3ccnc(C)c3)nc3cccc(Cl)c32)c1 [Example 2-16, N-(1-(5-acrylamido-2-methylphenyl)-7-chloro-1H-benzo[d]imidazol-2-yl)-2-methylisonicotinamide] |  |  |  | 1.07 µM | 9.38 µM
14 | C=CC(=O)Nc1cc(-n2c(NC(=O)c3ccnc(C)c3)nc3cccc(Cl)c32)ccc1C [Example 2-17, N-(1-(3-acrylamido-4-methylphenyl)-7-chloro-1H-benzo[d]imidazol-2-yl)-2-methylisonicotinamide] |  |  |  | 0.006 µM | 0.065 µM
15 | C=CC(=O)Nc1cc(C)cc(-n2c(NC(=O)c3ccnc(C)c3)nc3cccc(Cl)c32)c1 [Example 2-18, N-(1-(3-acrylamido-5-methylphenyl)-7-chloro-1H-benzo[d]imidazol-2-yl)-2-methylisonicotinamide] |  |  |  | 0.046 µM | 0.627 µM
16 | C=CC(=O)NCCn1c(NC(=O)c2cccc(C(F)(F)F)c2)nc2cc(C)ccc21 [Example 8-5, N-{5-methyl-1-[2-(prop-2-enamido)ethyl]-1H-1,3-benzodiazol-2-yl}-3-(trifluoromethyl)benzamide] |  |  |  | 0.82 µM | 2.64 µM
17 | C=CC(=O)N[C@H]1CCCCC1n1c(NC(=O)c2cccc(C(F)(F)F)c2)nc2cc(C)ccc21 (stereo partly drawn) [Example 8-6, N-{5-methyl-1-[(1R,25)-2-(prop-2-enamido)cyclohexyl]-1H-1,3-benzodiazol-2-yl}-3-(trifluoromethyl)benzamide] |  |  |  | 0.079 µM | > 50 µM
18 | C=CC(=O)N[C@@H]1CCCC[C@H]1n1c(NC(=O)c2cccc(C(F)(F)F)c2)nc2cc(C)ccc21 [Example 8-7, N-{5-methyl-1-[(1R,2R)-2-(prop-2-enamido)cyclohexyl]-1H-1,3-benzodiazol-2-yl}-3-(trifluoromethyl)benzamide] |  |  |  | 0.31 µM | 2.3 µM
19 | C=CC(=O)N[C@H]1CC[C@@H](n2c(NC(=O)c3cccc(C(F)(F)F)c3)nc3cc(C)ccc32)CC1 [Example 8-8, N-{5-methyl-1-[(1S,4S)-4-(prop-2-enamido)cyclohexyl]-1H-1,3-benzodiazol-2-yl}-3-(trifluoromethyl)benzamide] |  |  |  | 0.21 µM | 0.46 µM
20 | C=CC(=O)N[C@H]1CC[C@H](n2c(NC(=O)c3cccc(C(F)(F)F)c3)nc3cc(C)ccc32)CC1 [Example 8-9, N-{5-methyl-1-[(1R,4R)-4-(prop-2-enamido)cyclohexyl]-1H-1,3-benzodiazol-2-yl}-3-(trifluoromethyl)benzamide] |  |  |  | 0.57 µM | 0.22 µM
